Test results reported in patent publication US9527853B2, “Fused triazole derivatives as gamma secretase modulators” (Ares Trading S.A., priority 2012, dated 2016).

Experiments:
AβTotal = test: Amyloidβ peptide release (AβTotal) assay, AlphaLisa on supernatant of APPswe-HEK cells; format: cell-based, human; details: 24 hours, ratio Abtot versus Ab42
Procedure: (§1) Amyloidβ Peptide Release (Aβ42 & AβTotal) Assay to Determine IC50 Values.
(§2) Amyloidβ peptide release (Aβ42 & AβTotal) assay are performed in 384 well microtiter plates (Perkin Elmer AlphaPlate #6008350) in a final volume of 20 μl, using supernatant coming from APPswe-HEK cells exposed to test compounds. Compounds are dissolved in and diluted in 100% DMSO and incubated with APPswe-HEK cells for 24 hours a 37° C. in 5% CO2. The supernatant from APPswe-HEK cells are mixed with antibodies: for Aβ42 detection: AlphaLisa Amyloid β 1-42 Kit (Perkin Elmer AL203L) Anti-Amyloid β1-42-specific antibody acceptor beads, biotinylated anti-Amyloid “β1-42” antibody and streptavidin (SA) donor beads diluted in AlphaLisa buffer (to the instructions of the supplier). For Aβ total detection: Custom Anti-Amyloid βtotal acceptor beads (6E10 acceptor beads), biotinylated anti-Amyloid “β1-42” antibody (Perkin Elmer AL203L) and streptavidin (SA) donor beads diluted in AlphaLisa buffer (to the instructions of the supplier). After addition of supernatant to the antibody mix, the assay is incubated 4 h and 30 minutes. AmyloidP peptide release (Aβ42 & AβTotal) is measured with a Pherastar FS (BMG) multimode reader using the alphascreen module.

Aβ42 = test: Amyloidβ peptide release (Aβ42) assay, AlphaLisa on supernatant of APPswe-HEK cells; format: cell-based; details: Homo sapiens, 24 hours incubation with compound, read-out: Ab42 IC50 Ranges
Procedure: as §1, §2

| SMILES | Abtot/Ab42 selectivity ranges (AβTotal) | IC50 (Aβ42) [nM] |
| --- | --- | --- |
| COc1cc(NC(=O)c2nnn3c2CCC3c2ccc(Cl)cc2)ccc1-n1cnc(C)c1 (stereo not drawn) [Example 28, 6-(4-chlorophenyl)-N-(3-methoxy-4-(4-methyl-1H-imidazol-1-yl)phenyl)-5,6-dihydro-4H-pyrrolo[1,2-c][1,2,3]triazole-3-carboxamide] | b (b: 100 fold > selectivity ≧ 50 fold) | ≤ 150 |
| Cc1cn(-c2ccc(NC(=O)c3nnn4c3CCCC4c3ccc(Cl)cc3)cc2F)cn1 (stereo not drawn) [Example 14, 7-(4-chlorophenyl)-N-(3-fluoro-4-(4-methyl-1H-imidazol-1-yl)phenyl)-4,5,6,7-tetrahydro-[1,2,3]triazolo[1,5-a]pyridine-3-carboxamide] | c (c: 50 fold > selectivity ≧ 10 fold) | 150 to 500 |
| COc1cc(NC(=O)c2nnn3c2COCC3c2ccc(Cl)cc2)ccc1-n1cnc(C)c1 (stereo not drawn) [Example 38, 7-(4-chlorophenyl)-N-(3-methoxy-4-(4-methyl-1H-imidazol-1-yl)phenyl)-6,7-dihydro-4H-[1,2,3]triazolo[5,1-c][1,4]oxazine-3-carboxamide] | b (b: 100 fold > selectivity ≧ 50 fold) | 150 to 500 |
| COc1cc(Nc2nnn3c2CCCC3c2cccc(C(F)(F)F)c2)ccc1-n1cnc(C)c1 (stereo not drawn) [Example 6, N-(3-methoxy-4-(4-methyl-1H-imidazol-1-yl)phenyl)-7-(3-(trifluoromethyl)phenyl)-4,5,6,7-tetrahydro-[1,2,3]triazolo[1,5-a]pyridin-3-amine] | b (b: 100 fold > selectivity ≧ 50 fold) | 150 to 500 |
| COc1cc(C(=O)Nc2nnn3c2CCC3c2ccc(F)cc2)ccc1-c1ccnc(C)c1 (stereo not drawn) [Example 47, N-(6-(4-fluorophenyl)-5,-dihydro-4H-pyrrolo[1,2-c][1,2,3]triazol-3-yl)-3-methoxy-4-(2-methylpyridin-4-yl)benzamide] | d (d: 10 fold > selectivity) | < 1000 |
| Cc1cn(-c2ccc(NC(=O)c3nnn4c3CCC4c3ccc(Cl)cc3)cc2C#N)cn1 (stereo not drawn) [Example 27, 6-(4-chlorophenyl)-N-(3-cyano-4-(4-methyl-1H-imidazol-1-yl)phenyl)-5,6-dihydro-4H-pyrrolo[1,2-c][1,2,3]triazole-3-carboxamide] | c (c: 50 fold > selectivity ≧ 10 fold) | 150 to 500 |
| COc1cc(NC(=O)c2nnn3c2CCC3c2ccc(F)cc2)ccc1-n1cnc(C)c1 (stereo not drawn) [Example 36, 6-(4-fluorophenyl)-N-(3-methoxy-4-(4-methyl-1H-imidazol-1-yl)phenyl)-5,6-dihydro-4H-pyrrolo[1,2-c][1,2,3]triazole-3-carboxamide] | b (b: 100 fold > selectivity ≧ 50 fold) | 150 to 500 |
| Cc1cc(-c2ccc(NC(=O)c3nnn4c3CCCC4c3ccc(F)cc3)cc2)ccn1 (stereo not drawn) [Example 21, 7-(4-fluorophenyl)-N-(4-(2-methylpyridin-4-yl)phenyl)-4,5,6,7-tetrahydro-[1,2,3]triazolo[1,5-a]pyridine-3-carboxamide] | d (d: 10 fold > selectivity) | < 1000 |
| COc1cc(NC(=O)c2nnn3c2CCC3c2ccc(Cl)c(Cl)c2)ccc1-c1cnn(C)c1 (stereo not drawn) [Example 35, 6-(3,4-dichlorophenyl)-N-(3-methoxy-4-(1-methyl-1H-pyrazol-4-yl)phenyl)-5,6-dihydro-4H-pyrrolo[1,2-c][1,2,3]triazole-3-carboxamide] | c (c: 50 fold > selectivity ≧ 10 fold) | 150 to 500 |
| COc1cc(NC(=O)c2nnn3c2CCC3c2ccc(Cl)c(Cl)c2)ccc1-n1cnc(C)c1 (stereo not drawn) [Example 34, 6-(3,4-dichlorophenyl)-N-(3-methoxy-4-(4-methyl-1H-imidazol-1-yl)phenyl)-5,6-dihydro-4H-pyrrolo[1,2-c][1,2,3]triazole-3-carboxamide] | a (a: selectivity ≧ 100 fold) | ≤ 150 |
| Cc1cc(-c2ccc(Nc3nnn4c3CCC4c3ccc(Cl)cc3)cc2)ccn1 (stereo not drawn) [Example 9] | a (a: selectivity ≧ 100 fold) | 150 to 500 |
| COc1cc(NC(=O)c2nnn3c2CC[C@H]3c2ccc(Cl)cc2)ccc1-n1cnc(C)c1 [Example 31, (S)-6-(4-chlorophenyl)-N-(3-methoxy-4-(4-methyl-1H-imidazol-1-yl)phenyl)-5,6-dihydro-4H-pyrrolo[1,2-c][1,2,3]triazole-3-carboxamide] | c (c: 50 fold > selectivity ≧ 10 fold) | 150 to 500 |
| COc1cc(NC(=O)c2nnn3c2CCCC3c2ccccc2C(F)(F)F)ccc1-n1cnc(C)c1 (stereo not drawn) [Example 18, N-(3-methoxy-4-(4-methyl-1Himidazol-1-yl)phenyl)-7-(2-(trifluoromethyl)phenyl)-4,5,6,7-tetrahydro-[1,2,3]triazolo[1,5-a]pyridine-3-carboxamide] | c (c: 50 fold > selectivity ≧ 10 fold) | 150 to 500 |
| COc1cc(NC(=O)c2nnn3c2CCC[C@@H]3c2ccc(Cl)cc2)ccc1-n1cnc(C)c1 [Example 23, (R)-7-(4-chlorophenyl)-N-(3-methoxy-4-(4-methyl-1H-imidazol-1-yl)phenyl)-4,5,6,7-tetrahydro-[1,2,3]triazolo[1,5-a]pyridine-3-carboxamide] | b (b: 100 fold > selectivity ≧ 50 fold) | ≤ 150 |
| COc1cc(NC(=O)c2nnn3c2CCCC3c2ccc(Cl)c(Cl)c2)ccc1-n1cnc(C)c1 (stereo not drawn) [Example 19, 7-(3,4-dichlorophenyl)-N-(3-methoxy-4-(4-methyl-1H-imidazol-1-yl)phenyl)-4,5,6,7-tetrahydro-[1,2,3]triazolo[1,5-a]pyridine-3-carboxamide] | b (b: 100 fold > selectivity ≧ 50 fold) | ≤ 150 |
| COc1cc(C(=O)Nc2nnn3c2CCCC3c2ccc(Cl)cc2)ccc1-n1cnc(C)c1 (stereo not drawn) [Example 40, N-(7-(4-chlorophenyl)-4,5,6,7-tetrahydro-[1,2,3]triazolo[1,5-a]pyridin-3-yl)-3-methoxy-4-(4-methyl-1H-imidazol-1-yl)benzamide] | b (b: 100 fold > selectivity ≧ 50 fold) | 150 to 500 |
| Cc1cn(-c2ccc(NC(=O)c3nnn4c3CCC4c3ccc(Cl)cc3)cc2F)cn1 (stereo not drawn) [Example 26, 6-(4-chlorophenyl)-N-(3-fluoro-4-(4-methyl-1H-imidazol-1-yl)phenyl)-5,6-dihydro-4H-pyrrolo[1,2-c][1,2,3]triazole-3-carboxamide] | b (b: 100 fold > selectivity ≧ 50 fold) | 150 to 500 |
| COc1cc(C(=O)Nc2nnn3c2CCC3c2ccc(Cl)cc2)ccc1-n1cnc(C)c1 (stereo not drawn) [Example 44, N-(6-(4-chlorophenyl)-5,6-dihydro-4H-pyrrolo[1,2-c][1,2,3]triazol-3-yl)-3-methoxy-4-(4-methyl-1H-imidazol-1-yl)benzamide] | c (c: 50 fold > selectivity ≧ 10 fold) | 150 to 500 |
| COc1cc(NC(=O)c2nnn3c2CCC3c2ccccc2Cl)ccc1-n1cnc(C)c1 (stereo not drawn) [Example 32, 6-(2-chlorophenyl)-N-(3-methoxy-4-(4-methyl-1H-imidazol-1-yl)phenyl)-5,6-dihydro-4H-pyrrolo[1,2-c][1,2,3]triazole-3-carboxamide] | b (b: 100 fold > selectivity ≧ 50 fold) | ≤ 150 |
| COc1nc(NC(=O)c2nnn3c2CCC3c2ccc(Cl)cc2)ccc1-n1cnc(C)c1 (stereo not drawn) [Example 29, 6-(4-chlorophenyl)-N-(6-methoxy-5-(4-methyl-1H-imidazol-1-yl)pyridin-2-yl)-5,6-dihydro-4H-pyrrolo[1,2-c][1,2,3]triazole-3-carboxamide] | a (a: selectivity ≧ 100 fold) | < 1000 |
| COc1cc(Nc2nnn3c2CCCC3c2ccccc2C(F)(F)F)ccc1-n1cnc(C)c1 (stereo not drawn) [Example 2] | a (a: selectivity ≧ 100 fold) | 150 to 500 |
| COc1cc(Nc2nnn3c2CCC3c2ccc(Cl)cc2)ccc1-n1cnc(C)c1 (stereo not drawn) [Example 8, 6-(4-chlorophenyl)-N-(3-methoxy-4-(4-methyl-1H-imidazol-1-yl)phenyl)-5,6-dihydro-4H-pyrrolo[1,2-c][1,2,3]triazol-3-amine] | a (a: selectivity ≧ 100 fold) | 150 to 500 |
| COc1cc(NC(=O)c2nnn3c2CCCC3c2ccc(F)cc2)ccc1-n1cnc(C)c1 (stereo not drawn) [Example 20, 7-(4-fluorophenyl)-N-(3-methoxy-4-(4-methyl-1H-imidazol-1-yl)phenyl)-4,5,6,7-tetrahydro-[1,2,3]triazolo[1,5-a]pyridine-3-carboxamide] | b (b: 100 fold > selectivity ≧ 50 fold) | 150 to 500 |
| COc1cc(NC(=O)c2nnn3c2CC[C@@H]3c2ccc(Cl)cc2)ccc1-n1cnc(C)c1 [Example 30, (R)-6-(4-chlorophenyl)-N-(3-methoxy-4-(4-methyl-1H-imidazol-1-yl)phenyl)-5,6-dihydro-4H-pyrrolo[1,2-c][1,2,3]triazole-3-carboxamide] | b (b: 100 fold > selectivity ≧ 50 fold) | ≤ 150 |
